Reference: PMC7150767, “Monocarboxylate Transporter 6-Mediated Interactions with Prostaglandin F2α: In Vitro and In Vivo Evidence Utilizing a Knockout Mouse Model” (Pharmaceutics, 2020)

Key:
[1] = target: T1, human monocarboxylate transporter 6 (hMCT6) (Homo sapiens, UniProt O15375); assay: cis-inhibition of [3H]PGF2α uptake in oocytes at […]; assay type: cell-based; conditions: read-out: % inhibition at 10 μM (range over the PGs)
T1 construct: gene SLC16A5
T1 sequence (O15375 1-505): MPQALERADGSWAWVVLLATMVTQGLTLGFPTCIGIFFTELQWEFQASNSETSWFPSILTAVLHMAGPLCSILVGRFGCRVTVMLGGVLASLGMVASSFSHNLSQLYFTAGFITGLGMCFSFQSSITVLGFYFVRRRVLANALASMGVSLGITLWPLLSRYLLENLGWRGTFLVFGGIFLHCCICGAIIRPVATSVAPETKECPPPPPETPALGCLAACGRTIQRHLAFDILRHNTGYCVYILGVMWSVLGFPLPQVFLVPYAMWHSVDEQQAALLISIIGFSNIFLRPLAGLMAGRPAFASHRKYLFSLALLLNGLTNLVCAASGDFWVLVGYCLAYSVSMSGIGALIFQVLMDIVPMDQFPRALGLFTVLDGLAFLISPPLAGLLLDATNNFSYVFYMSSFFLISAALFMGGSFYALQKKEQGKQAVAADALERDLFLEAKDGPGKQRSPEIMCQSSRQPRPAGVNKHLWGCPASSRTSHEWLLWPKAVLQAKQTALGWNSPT

[2] = target: T2, murine monocarboxylate transporter 6 (mMct6) (Mus musculus, UniProt G5E8K6); assay: cis-inhibition of [3H]PGF2α uptake in oocytes, […] ([…] inhibition); assay type: cell-based
T2 construct: gene Slc16a5; full-length, untagged, cRNA in Xenopus laevis oocytes
T2 sequence (G5E8K6 1-468): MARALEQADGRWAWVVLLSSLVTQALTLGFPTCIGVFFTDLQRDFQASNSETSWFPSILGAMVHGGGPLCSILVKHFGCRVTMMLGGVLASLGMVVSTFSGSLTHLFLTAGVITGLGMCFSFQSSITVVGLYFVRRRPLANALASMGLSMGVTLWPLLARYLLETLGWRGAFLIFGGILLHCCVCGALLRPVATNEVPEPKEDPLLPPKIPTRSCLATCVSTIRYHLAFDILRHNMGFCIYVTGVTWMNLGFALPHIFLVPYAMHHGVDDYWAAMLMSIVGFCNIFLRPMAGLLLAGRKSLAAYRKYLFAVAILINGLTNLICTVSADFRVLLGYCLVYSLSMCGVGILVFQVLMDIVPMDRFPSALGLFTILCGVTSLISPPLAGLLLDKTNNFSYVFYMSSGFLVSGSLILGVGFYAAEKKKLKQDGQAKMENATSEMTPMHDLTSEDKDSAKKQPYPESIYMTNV

[3] = target: T1, human monocarboxylate transporter 6 (hMCT6); assay: cis-inhibition of [3H]PGF2α uptake in oocytes; assay type: cell-based
[4] = target: T2, murine monocarboxylate transporter 6 (mMct6); assay: cis-inhibition of [3H]PGF2α uptake in oocytes, […] ([…] inhibition); assay type: cell-based; remark: listed apart in the source
[5] = substrate: CCCCC[C@H](O)/C=C/[C@@H]1[C@@H](C/C=C\CCCC(=O)O)[C@@H](O)C[C@H]1O; assay: cells, lysate or membranes; assay type: cell-based, Homo sapiens; conditions: pH 7.4
[6] = substrate: CCCCC[C@H](O)/C=C/[C@@H]1[C@@H](C/C=C\CCCC(=O)O)[C@@H](O)C[C@H]1O; assay: cells, lysate or membranes; assay type: cell-based, Mus musculus; conditions: pH 7.4

`CCCCC[C@H](O)/C=C/[C@@H]1[C@@H](CC(=O)CCCCC(=O)O)[C@@H](O)C[C@H]1O` [6-keto prostaglandin F1α] gave an inhibition at 10 µM [1] of 51 to 74%.

For `CCCCNc1cc(C(=O)O)cc(S(N)(=O)=O)c1Oc1ccccc1` [bumetanide], the inhibition at 10 µM [2] was roughly 28% and the “cis-inhibition of [3H]PGF2α uptake in oocytes” value [3] was “Bumetanide and probenecid also inhibited human MCT6-mediated PGF2α uptake”.

In the case of `CCCN(CCC)S(=O)(=O)c1ccc(C(=O)O)cc1` [probenecid], the “cis-inhibition of [3H]PGF2α uptake in oocytes” value [3] is reported as “Bumetanide and probenecid also inhibited human MCT6-mediated PGF2α uptake” and the inhibition at 500 µM [4] is reported as roughly 94%.

With `CCCCC[C@H](O)/C=C/[C@H]1C(=O)C[C@H](O)[C@@H]1C/C=C\CCCC(=O)O` [prostaglandin D2] the inhibition at 10 µM [1] was 51 to 74%.

With `CCCCC[C@H](O)/C=C/[C@H]1[C@H](O)CC(=O)[C@@H]1C/C=C\CCCC(=O)O` [prostaglandin E2] the inhibition at 10 µM [1] was 51 to 74%.

B1: human monocarboxylate transporter 6 (hMCT6) (Homo sapiens) (protein)
chain: MPQALERADGSWAWVVLLATMVTQGLTLGFPTCIGIFFTELQWEFQASNSETSWFPSILTAVLHMAGPLCSILVGRFGCRVTVMLGGVLASLGMVASSFSHNLSQLYFTAGFITGLGMCFSFQSSITVLGFYFVRRRVLANALASMGVSLGITLWPLLSRYLLENLGWRGTFLVFGGIFLHCCICGAIIRPVATSVAPETKECPPPPPETPALGCLAACGRTIQRHLAFDILRHNTGYCVYILGVMWSVLGFPLPQVFLVPYAMWHSVDEQQAALLISIIGFSNIFLRPLAGLMAGRPAFASHRKYLFSLALLLNGLTNLVCAASGDFWVLVGYCLAYSVSMSGIGALIFQVLMDIVPMDQFPRALGLFTVLDGLAFLISPPLAGLLLDATNNFSYVFYMSSFFLISAALFMGGSFYALQKKEQGKQAVAADALERDLFLEAKDGPGKQRSPEIMCQSSRQPRPAGVNKHLWGCPASSRTSHEWLLWPKAVLQAKQTALGWNSPT
notes: pGH19-hMCT6 cRNA in Xenopus laevis oocytes
Work on B1 yielded a Km [5] of 246 µM.

B2: murine monocarboxylate transporter 6 (mMct6) (Mus musculus) (protein)
chain: MARALEQADGRWAWVVLLSSLVTQALTLGFPTCIGVFFTDLQRDFQASNSETSWFPSILGAMVHGGGPLCSILVKHFGCRVTMMLGGVLASLGMVVSTFSGSLTHLFLTAGVITGLGMCFSFQSSITVVGLYFVRRRPLANALASMGLSMGVTLWPLLARYLLETLGWRGAFLIFGGILLHCCVCGALLRPVATNEVPEPKEDPLLPPKIPTRSCLATCVSTIRYHLAFDILRHNMGFCIYVTGVTWMNLGFALPHIFLVPYAMHHGVDDYWAAMLMSIVGFCNIFLRPMAGLLLAGRKSLAAYRKYLFAVAILINGLTNLICTVSADFRVLLGYCLVYSLSMCGVGILVFQVLMDIVPMDRFPSALGLFTILCGVTSLISPPLAGLLLDKTNNFSYVFYMSSGFLVSGSLILGVGFYAAEKKKLKQDGQAKMENATSEMTPMHDLTSEDKDSAKKQPYPESIYMTNV
notes: full-length, untagged, cRNA (NM_001080934.1) in Xenopus laevis oocytes
B2 was tested, and the Km [6] was 40.1 µM.
